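Where inhibition never reached the appropriate level, the endpoint shown equals the highest concentration tested. Otherwise, values were interpolated linearly from a five-concentration, 48-hour dose response in 96-well plates. GI50 is the concentration that inhibits growth by half. TGI marks complete inhibition of growth.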
Experiments:
Experiment in all cases: NCI tumour cell line growth inhibition, 48 h
K-562 leukemia = tested on: K-562 leukemia
NCI-H460 lung = tested on: NCI-H460 lung
DU-145 prostate = tested on: DU-145 prostate
RPMI-8226 leukemia = tested on: RPMI-8226 leukemia
HCT-116 colon = tested on: HCT-116 colon
A549 NSCLC = tested on: A549 NSCLC
KM12 colon = tested on: KM12 colon
NCI-H23 lung = tested on: NCI-H23 lung
786-0 renal = tested on: 786-0 renal
COLO 205 colon = tested on: COLO 205 colon
HOP-62 NSCLC = tested on: HOP-62 NSCLC
MCF7 breast = tested on: MCF7 breast
SF-295 CNS = tested on: SF-295 CNS
MDA-MB-231 breast = tested on: MDA-MB-231 breast
SK-MEL-28 melanoma = tested on: SK-MEL-28 melanoma
A498 renal = tested on: A498 renal
CAKI-1 renal = tested on: CAKI-1 renal
HS 578T breast = tested on: HS 578T breast
HCC-2998 colon = tested on: HCC-2998 colon
OVCAR-4 ovarian = tested on: OVCAR-4 ovarian
M14 melanoma = tested on: M14 melanoma
SW-620 colon = tested on: SW-620 colon
BT-549 breast = tested on: BT-549 breast
SNB-75 CNS = tested on: SNB-75 CNS
SN12C renal = tested on: SN12C renal
EKVX NSCLC = tested on: EKVX NSCLC
OVCAR-5 ovarian = tested on: OVCAR-5 ovarian
SK-OV-3 ovarian = tested on: SK-OV-3 ovarian
MDA-MB-435 = tested on: MDA-MB-435
CCRF-CEM leukemia = tested on: CCRF-CEM leukemia
OVCAR-3 ovarian = tested on: OVCAR-3 ovarian
SNB-19 CNS = tested on: SNB-19 CNS
UACC-257 melanoma = tested on: UACC-257 melanoma
NCI-H522 lung = tested on: NCI-H522 lung
UO-31 renal = tested on: UO-31 renal
UACC-62 melanoma = tested on: UACC-62 melanoma
T-47D breast = tested on: T-47D breast
ACHN renal = tested on: ACHN renal
NCI-H226 lung = tested on: NCI-H226 lung
SF-268 CNS = tested on: SF-268 CNS
SK-MEL-2 melanoma = tested on: SK-MEL-2 melanoma
IGROV1 ovarian = tested on: IGROV1 ovarian
SF-539 CNS = tested on: SF-539 CNS
HOP-92 NSCLC = tested on: HOP-92 NSCLC
U251 CNS = tested on: U251 CNS
RXF 393 renal = tested on: RXF 393 renal
HL-60(TB) leukemia = tested on: HL-60(TB) leukemia
OVCAR-8 ovarian = tested on: OVCAR-8 ovarian
LOX IMVI melanoma = tested on: LOX IMVI melanoma
HCT-15 colon = tested on: HCT-15 colon
SK-MEL-5 melanoma = tested on: SK-MEL-5 melanoma
MOLT-4 leukemia = tested on: MOLT-4 leukemia
PC-3 prostate = tested on: PC-3 prostate
NCI/ADR-RES ovarian = tested on: NCI/ADR-RES ovarian
TK-10 renal = tested on: TK-10 renal
HT29 colon = tested on: HT29 colon

Cc1ccc2c(c1)n([O-])c(C(F)(F)F)c(C(=O)c1ccco1)[n+]2=O
GI50 (K-562 leukemia): 1100 nM
TGI (K-562 leukemia): 34500 nM
GI50 (NCI-H460 lung): 262 nM
TGI (NCI-H460 lung): 1520 nM
GI50 (DU-145 prostate): 564 nM
TGI (DU-145 prostate): 1330 nM
GI50 (RPMI-8226 leukemia): 357 nM
TGI (RPMI-8226 leukemia): 2690 nM
GI50 (HCT-116 colon): 994 nM
TGI (HCT-116 colon): 12700 nM
GI50 (A549 NSCLC): 965 nM
TGI (A549 NSCLC): 3350 nM
GI50 (KM12 colon): 667 nM
TGI (KM12 colon): 2490 nM
GI50 (NCI-H23 lung): 433 nM
TGI (NCI-H23 lung): 1520 nM
GI50 (786-0 renal): 1220 nM
TGI (786-0 renal): 6590 nM
GI50 (COLO 205 colon): 816 nM
TGI (COLO 205 colon): 2060 nM
GI50 (HOP-62 NSCLC): 996 nM
TGI (HOP-62 NSCLC): 3850 nM
GI50 (MCF7 breast): 762 nM
TGI (MCF7 breast): 4900 nM
GI50 (SF-295 CNS): 457 nM
TGI (SF-295 CNS): 1970 nM
GI50 (MDA-MB-231 breast): 929 nM
TGI (MDA-MB-231 breast): 2650 nM
GI50 (SK-MEL-28 melanoma): 4160 nM
TGI (SK-MEL-28 melanoma): 23600 nM
GI50 (A498 renal): 1210 nM
TGI (A498 renal): 3210 nM
GI50 (CAKI-1 renal): 84.5 nM
TGI (CAKI-1 renal): 448 nM
GI50 (HS 578T breast): 1200 nM
TGI (HS 578T breast): 7730 nM
GI50 (HCC-2998 colon): 716 nM
TGI (HCC-2998 colon): 1670 nM
GI50 (OVCAR-4 ovarian): 627 nM
TGI (OVCAR-4 ovarian): 1890 nM
GI50 (M14 melanoma): 1300 nM
TGI (M14 melanoma): 6550 nM
GI50 (SW-620 colon): 966 nM
TGI (SW-620 colon): 8150 nM
GI50 (BT-549 breast): 627 nM
TGI (BT-549 breast): 4210 nM
GI50 (SNB-75 CNS): 1400 nM
TGI (SNB-75 CNS): 6070 nM
GI50 (SN12C renal): 833 nM
TGI (SN12C renal): 2500 nM
GI50 (EKVX NSCLC): 719 nM
TGI (EKVX NSCLC): 2880 nM
GI50 (OVCAR-5 ovarian): 1720 nM
TGI (OVCAR-5 ovarian): 9030 nM
GI50 (SK-OV-3 ovarian): 1590 nM
TGI (SK-OV-3 ovarian): 7390 nM
GI50 (MDA-MB-435): 744 nM
TGI (MDA-MB-435): 2650 nM
GI50 (CCRF-CEM leukemia): 74.3 nM
TGI (CCRF-CEM leukemia): 859 nM
GI50 (OVCAR-3 ovarian): 573 nM
TGI (OVCAR-3 ovarian): 1750 nM
GI50 (SNB-19 CNS): 1470 nM
TGI (SNB-19 CNS): 6820 nM
GI50 (UACC-257 melanoma): 924 nM
TGI (UACC-257 melanoma): 3120 nM
GI50 (NCI-H522 lung): 1420 nM
TGI (NCI-H522 lung): 12500 nM
GI50 (UO-31 renal): 319 nM
TGI (UO-31 renal): 1810 nM
GI50 (UACC-62 melanoma): 723 nM
TGI (UACC-62 melanoma): 1610 nM
GI50 (T-47D breast): 472 nM
TGI (T-47D breast): 4180 nM
GI50 (ACHN renal): 217 nM
TGI (ACHN renal): 1000 nM
GI50 (NCI-H226 lung): 755 nM
TGI (NCI-H226 lung): 2090 nM
GI50 (SF-268 CNS): 420 nM
TGI (SF-268 CNS): 2480 nM
GI50 (SK-MEL-2 melanoma): 4400 nM
TGI (SK-MEL-2 melanoma): 34700 nM
GI50 (IGROV1 ovarian): 205 nM
TGI (IGROV1 ovarian): 9000 nM
GI50 (SF-539 CNS): 918 nM
TGI (SF-539 CNS): 2670 nM
GI50 (HOP-92 NSCLC): 55.6 nM
TGI (HOP-92 NSCLC): 445 nM
GI50 (U251 CNS): 632 nM
TGI (U251 CNS): 5150 nM
GI50 (RXF 393 renal): 622 nM
TGI (RXF 393 renal): 2910 nM
GI50 (HL-60(TB) leukemia): 1090 nM
TGI (HL-60(TB) leukemia): 21800 nM
GI50 (OVCAR-8 ovarian): 684 nM
TGI (OVCAR-8 ovarian): 2640 nM
GI50 (LOX IMVI melanoma): 176 nM
TGI (LOX IMVI melanoma): 930 nM
GI50 (HCT-15 colon): 562 nM
TGI (HCT-15 colon): 7620 nM
GI50 (SK-MEL-5 melanoma): 556 nM
TGI (SK-MEL-5 melanoma): 1300 nM
GI50 (MOLT-4 leukemia): 14600 nM
TGI (MOLT-4 leukemia): 50000 nM
GI50 (PC-3 prostate): 306 nM
TGI (PC-3 prostate): 4820 nM
GI50 (NCI/ADR-RES ovarian): 740 nM
TGI (NCI/ADR-RES ovarian): 3550 nM
GI50 (TK-10 renal): 1940 nM
TGI (TK-10 renal): 8740 nM
GI50 (HT29 colon): 2070 nM
TGI (HT29 colon): 20700 nM

Source: PubChem BioAssay (NCI)
